In patent US20010053796A1, “Delta-aminolevulinic acid for prevention and treatment of infection microorganisms and parasite” (priority 2000, published 2001):

What was measured:
Streptococcus sp. [1] = assay: Prevention effect for artificial infection (abdominal injection of bacteria); assay type: in vivo, Bastardhalibut; conditions: for Mortality during Cultivation: dead of 20 fish
Method: (§1) The water temperature was maintained at 20° C. (±2° C. ) throughout the experiment.
(§2) As the same method of above Experiment 1, fishes of both control group and experiment group were prepared and artificially infected by direct abdominal injection of Edwardsiella tarda 10^5 CFU per 1 fish. Each experimental fish was moved to fish tanks for monitoring and monitored for mortality according to infection for 2 weeks and viability after 2 weeks.
Bastardhalibut and Sebastes schlegeli were infected by Streptococcus sp. by abdominal injection with the same method of fish breeding, δ-aminolevulinic acid treatment and artificial infection carried out in Experiment 1 and 2. Each experimental fish was moved to fish tanks for monitoring and monitored for mortality according to infection for 2 weeks. […] The treated group, with δ-aminolevulinic acid by tank administration method and oral administration method, has shown viability of higher than 65%.

Vibrio anguillarum [2] = assay: as above; assay type: in vivo, Sebastes schlegeli; conditions: for Mortality during Cultivation: dead of 20 fish
Method: as §1, §2
Bastardhalibut and Sebastes schlegeli were infected by Vibrio anguillarum through abdominal injection with the same method of fish breeding; δ-aminolevulinic acid treatment and artificial infection carried out in Experiment 1 and 2.

Pseudomonas sp. = assay: Treatment effect of infected fry by digestion in breeding water; assay type: in vivo, Sebastes schlegeli; conditions: 50 fish
Method: (§3) To be used as experimental fish in this example, fry of Bastardhalibut and Sebastes schlegeli (mean body weight 2 g), 50 per each breeding tank, were preliminary-bred for 1 week and stabilized. […] The artificial infection methods were carried out by the digestion method. Pathogenic organisms were applied into fish tanks and digested in seawater, wherein the concentration of organisms has adjusted to 10^4 CFU/mL for an hour, and infected. Treatment conditions are as follows. After artificial infection. Infected fishes were moved to fish tanks and kept in the infection period for 3 days. On the fourth day of infection, 0.1, 1.0, 5 and 10 ppm δ-aminolevulinic acid were introduced to use as breeding water. Fish was bred in aerobic condition for 1˜24 hours without exchanging water and then, bred for 2 weeks after exchanging with clean seawater. Then, they were monitored to check for the mortality of fish according to infection. In the control groups, after each bacteria were identically introduced through the digestion method, mortality of Bastardhalibut and Sebastes schlegeli according to bacteria infection was identified while breeding with non-treated condition of δ-aminolevulinic acid. As a result of this experiment, δ-aminolevulinic acid-treated groups have shown high viability in both Bastardhalibut (Table 12˜Table 15) and Sebastes schlegeli (Table 16˜Table 19).

Staphylococcus sp. [3] = assay: as above; assay type: in vivo, Sebastes schlegeli; conditions: 50 fish
Method: as §3

Vibrio anguillarum [4] = assay: as above; assay type: in vivo, Sebastes schlegeli; conditions: 50 fish
Method: as §3

Staphylococcus epidermis = assay: as above; assay type: in vivo, Sebastes schlegeli; conditions: 50 fish
Method: as §3

Streptococcus sp. [5] = assay: as above; assay type: in vivo, Sebastes schlegeli; conditions: 50 fish
Method: as §3

Edwardsiella tarda = assay: as above; assay type: in vivo, Sebastes schlegeli; conditions: 50 fish
Method: as §3

Staphylococcus sp. [6] = assay: Prevention effect for artificial infection (abdominal injection of bacteria); assay type: in vivo, Bastardhalibut; conditions: for Mortality during Cultivation: dead of 20 fish
Method: The water temperature was maintained at 20° C. (±2° C. ) throughout the experiment. […]
Bastardhalibut and Sebastes schlegeli were infected by Staphylococcus sp. by abdominal injection with the same method of fish breeding δ-aminolevulinic acid treatment and artificial infection carried out in Experiment 1 and 2. Each experimental fish was moved to fish tanks for monitoring and monitored for mortality according to infection for 2 weeks.

Bastardhalibut = assay: Breeding before Scutica artificial infection (mortality during cultivation); conditions: oral (100 ppm per feed 1 kg), 1˜3 weeks
From the text: 20 flatfish of about 25 g were set into 2 groups and 1 control group and cultivated in circulatory filtering system. In group 1, they were cultivated for 1˜3 weeks, maintaining the concentration of δ-aminolevulinic acid at 0.01˜50 ppm by administering δ-aminolevulinic acid once every 3 days to the cultivating water. In group 2, they were cultivated for 1˜3 weeks by administering δ-aminolevulinic acid solution, which was nebulized at the concentration of 0.1˜100 ppm and for artificial assorted feed (EP, fish body weight 3%: 15 g) 1 kg, and dried. In group 1 and the non-treated group, artificial assorted feed on the market with the same amount of feed of group 2 was used without δ-aminolevulinic acid treatment. […] The water temperature was maintained at 20° C. (±2° C.) throughout the experiment.

[7] = digestion 0.1 ppm from 4th day of infection, Sebastes schlegeli fry
[8] = digestion 1.0 ppm from 4th day of infection, Sebastes schlegeli fry
[9] = digestion 5.0 ppm from 4th day of infection, in Sebastes schlegeli
[10] = digestion 10 ppm from 4th day of infection
[11] = digestion 5.0 ppm from 4th day of infection
[12] = digestion 10 ppm from 4th day of infection, Sebastes schlegeli fry

## NCC(=O)CCC(=O)O [δ-aminolevulinic acid]
Streptococcus sp. [1]; orally, 0.1 ppm in feed
  Viability: 65%
  Mortality during Cultivation: 7
Streptococcus sp. [1]; orally, 1.0 ppm in feed
  Viability: 65%
  Mortality during Cultivation: 7
Streptococcus sp. [1]; orally, 10 ppm in feed
  Viability: 80%
  Mortality during Cultivation: 4
Streptococcus sp. [1]; orally, 100 ppm in feed
  Viability: 85%
  Mortality during Cultivation: 3
Streptococcus sp. [1]; to fish tanks, 0.01 ppm
  Viability: 60%
  Mortality during Cultivation: 8
Streptococcus sp. [1]; to fish tanks, 0.1 ppm
  Viability: 65%
  Mortality during Cultivation: 7
Streptococcus sp. [1]; to fish tanks, 1.0 ppm
  Viability: 75%
  Mortality during Cultivation: 5
Streptococcus sp. [1]; to fish tanks, 10 ppm
  Viability: 85%
  Mortality during Cultivation: 3
Vibrio anguillarum [2]; orally, 0.1 ppm in feed
  Viability: 60%
  Mortality during Cultivation: 8
Vibrio anguillarum [2]; orally, 1.0 ppm in feed
  Viability: 65%
  Mortality during Cultivation: 7
Vibrio anguillarum [2]; orally, 10 ppm in feed
  Viability: 80%
  Mortality during Cultivation: 4
Vibrio anguillarum [2]; orally, 100 ppm in feed
  Viability: 90%
  Mortality during Cultivation: 2
Vibrio anguillarum [2]; to fish tanks, 0.01 ppm
  Viability: 60%
  Mortality during Cultivation: 8
Vibrio anguillarum [2]; to fish tanks, 0.1 ppm
  Viability: 60%
  Mortality during Cultivation: 8
Vibrio anguillarum [2]; to fish tanks, 1.0 ppm
  Viability: 85%
  Mortality during Cultivation: 1
Vibrio anguillarum [2]; to fish tanks, 10 ppm
  Viability: 90%
  Mortality during Cultivation: 2
Pseudomonas sp.; [7]
  Viability: 40%
Pseudomonas sp.; [8]
  Viability: 76%
Pseudomonas sp.; [9]
  Viability: 86%
Pseudomonas sp.; [10]
  Viability: 84%
Staphylococcus sp. [3]; [7]
  Viability: 50%
Staphylococcus sp. [3]; [8]
  Viability: 76%
Staphylococcus sp. [3]; [11]
  Viability: 84%
Staphylococcus sp. [3]; [12]
  Viability: 86%
Vibrio anguillarum [4]; [7]
  Viability: 50%
Vibrio anguillarum [4]; [8]
  Viability: 74%
Vibrio anguillarum [4]; [11]
  Viability: 84%
Vibrio anguillarum [4]; [12]
  Viability: 86%
Staphylococcus epidermis; [7]
  Viability: 40%
Staphylococcus epidermis; [8]
  Viability: 70%
Staphylococcus epidermis; [9]
  Viability: 66%
Staphylococcus epidermis; [10]
  Viability: 84%
Streptococcus sp. [5]; [7]
  Viability: 50%
Streptococcus sp. [5]; [8]
  Viability: 76%
Streptococcus sp. [5]; [9]
  Viability: 86%
Streptococcus sp. [5]; [12]
  Viability: 86%
Edwardsiella tarda; [7]
  Viability: 60%
Edwardsiella tarda; [8]
  Viability: 80%
Edwardsiella tarda; [9]
  Viability: 84%
Edwardsiella tarda; [12]
  Viability: 94%
Staphylococcus sp. [6]; orally, 0.1 ppm in feed
  Viability: 55%
  Mortality during Cultivation: 9
Staphylococcus sp. [6]; orally, 1.0 ppm in feed
  Viability: 65%
  Mortality during Cultivation: 7
Staphylococcus sp. [6]; orally, 10 ppm in feed
  Viability: 95%
  Mortality during Cultivation: 1
Staphylococcus sp. [6]; orally, 100 ppm in feed
  Viability: 90%
  Mortality during Cultivation: 2
Staphylococcus sp. [6]; to fish tanks, 0.01 ppm
  Viability: 55%
  Mortality during Cultivation: 9
Staphylococcus sp. [6]; to fish tanks, 0.1 ppm
  Viability: 75%
  Mortality during Cultivation: 5
Staphylococcus sp. [6]; to fish tanks, 1.0 ppm
  Viability: 90%
  Mortality during Cultivation: 2
Staphylococcus sp. [6]; to fish tanks, 10 ppm
  Viability: 95%
  Mortality during Cultivation: 1
Bastardhalibut
  Viability: 100%
Bastardhalibut; dead of 20 fish
  Mortality during Cultivation: 0
